The source of these data is patent publication US9795647B2, “Compositions and methods for modulating inflammatory potential” (New Chapter Inc., priority 2009, dated 2017).

One data set relates to A549 cells. The data set can be described thus: Proliferation of A549 nonsmall cell lung cancer cells (overexpress COX-2). The format is cell-based, human. Conditions: A549 overexpress COX-2. The text has this: The antitumor efficacy of specifically formulated fish oil 30 diets was studied in human lung cancer A549 xenograft (over expression of COX-2) and H1299 xenograft (lack of COX-2 expression).
FIG. 17 illustrates the relative effect of WholeMega and two commercial fish oil products to inhibit proliferation of human A549 nonsmall cell lung cancer cells (top figure) and human H1299 nonsmall cell lung cancer cells (bottom figure). A549 cells overexpress COX-2, as many cancer cells are known to do. […] The A549 cells over-express COX-2 which normally results in an over-expression/production of PGE2. When provided with an alternate substrate, however, such as fish oil EPA, the resulting product is PGE3 rather than PGE2. […] Clearly, at least one structural feature unique to the Wholemega composition contributes an additional anti-tumor effect. One possibility is that that other oils in Wholemega (omega-5, omega-7 and omega-9 oils), that are not present in the other two fish oils, contribute to an additional inhibitory effect on the growth of the cancer cells. Another possibility would be the relative fractions of certain oils to one another. Yet another possibility would be the herbal oil component, e.g. SCE rosemary and SCE oregano) contribute an added inhibitory effect on the growth of the cancer cells. […]

Another data set has as its system beta-cell. Particulars: 0.5 mmol/l, medium with 5.5, 11.1 or 33.3 mmol/l glucose, 4 days; cited from earlier work.
Another data set concerns Selenomonas artemidis. Particulars: only one of 45 compounds surveyed; cited from earlier work.
For another data set, the system named is gram-positive bacteria. Particulars: purified cPA (>99%); cited from earlier work.

In the case of `CC/C=C\C[C@H](O)/C=C/[C@H]1[C@H](O)CC(=O)[C@@H]1C/C=C\CCCC(=O)O` [PGE3], in the data set on A549 cells, the “effect on proliferation of A549 cells” value is given as “inhibits proliferation”.

Regarding `CCCCCC/C=C\CCCCCCCC(=O)O` [palmitoleic acid], the “beta-cell DNA fragmentation” value in the data set on beta-cell is given as “did not affect”.

As for `CCCCC=CCCCCCCCC(=O)O` [myristoleic acid, 9-tetradecenoic acid], the “inhibitory concentration towards S. artemidis” value with Selenomonas artemidis is less than 100 micrograms/ml.

With `CCCCCCCCC/C=C\CCCCC(=O)O` [cPA, palmitoleic acid (C16:1delta6, cPA)], the “minimal inhibitory concentration (MIC)” value in the data set with gram-positive bacteria was 10 to 20 mg/L.

Consider `CCCCC[C@H](O)/C=C/[C@H]1[C@H](O)CC(=O)[C@@H]1C/C=C\CCCC(=O)O` [PGE2], for which the “effect on proliferation of A549 cells” value in the data set with A549 cells is “slightly stimulates proliferation”.
